Columns and labels:
[1] = test system: BT-12 AT/RT intracranial xenografts; assay: Intracranial AT/RT xenograft tumors; assay type: in vivo, mice; settings: 7.5 mg/kg/day oral for 21 days
Excerpt: Six-week-old female athymic mice (rnu/rnu genotype, BALB/c background) were purchased from Envigo (Harlan) and housed under aseptic conditions, which included filtered air and sterilized food, water, bedding, and cages. The Northwestern University Institutional Animal Care and Use Committee approved all animal protocols. The BT-12 AT/RT cell line, which has high expression of PLK4 was modified to express luciferase and injected intracranially in nude mice as previously described. Each mouse was injected with a cell suspension (10,000 cells/3 μL) into the right caudate putamen of the brain. […] Bioluminescence monitoring was performed twice a week throughout the course of the experiment for quantitative measurement of tumor growth and response to therapy. Kaplan-Meier survival analysis was performed to assess survival benefit within the treatment group as compared to controls. Differences between survival curves were calculated using a log-rank test. Brains were resected at 6 hours following completion of the treatment and placed in 4% paraformaldthyde for subsequent histological examination.

MON cells [2] = assay: Invasion and migration assays (Transwell); assay type: cell-based, human; settings: 100 nM, 24 hr
Procedure: Both migration and invasion were assessed using a 24-well Transwell chamber system (Corning, USA).[35] MON cells were plated at 20,000 per well for cell migration and at 50,000 per well coated with matrigel (200 μg/ml, 3 hr of solidification) for cell invasion. HFF-SCC058 cells were used as negative controls. […] All experiments were performed in triplicates.

RT and MB cell lines = assay: Clonogenic recovery assay; assay type: cell-based, human; settings: 100 nM for 6 days, then 12 days drug-free
Procedure: For each cell line, 200 cells were seeded into 6-well tissue culture plates. […] On the 7th day, cell were washed with IX PBS twice and then incubated with 0.1% DMSO for an additional 12 days. […] The number of colonies was counted. All experiments were performed in triplicates.

MON cells [3] = assay: Time-lapse assay, nuclear area and volume; assay type: cell-based, human; settings: 100 nM, 48 hours, p-value<0.001
Procedure: Cells were plated in 35 mm glass bottom dishes (Cat #150682, Thermo Fisher Scientific, USA) in normal growth medium and allowed to grow overnight. After the treatment medium was added, imaging began immediately. Brightfield images (20×) were taken every 6 minutes at 10 predetermine fields for 48 hours. Images were processed in ZEN 2.3 software (Zeiss, USA).

[4] = test system: HFF-SCC058 non-neoplastic human fibroblast cells; assay: Immunofluorescence for gamma-tubulin (centriole number); assay type: cell-based; settings: 100 and 500 nM
Procedure: (§1) The cells were then blocked in blocking buffer (5% BSA (Jackson Immuno Research Laboratories Inc., USA) in PBST) for 1 hour at RT. The primary antibody ([…] 1:500, Sigma, USA) diluted in 1% BSA in PBST was then added and incubated at 4° C. overnight. Then, the cells were washed with 1×PBS thrice. Secondary antibody (Anti-Rabbit IgG (H+L) F (ab′) 2, 1:500, Sigma, USA) diluted in 1% BSA in PBST was added and incubated at RT for 2 hours. Three time washes with IX PBS were performed. Then, 1 mL of DAPI (Thermo Fisher Scientific, USA) in PBS (0.5 μl of DAPI in 10 ml PBS) was added to the cells and incubated for 10 min at RT. Finally, 3 time washes with 1×PBS were performed and slides were mounted using Mounting Medium (Thermo Fisher Scientific, USA).

[5] = test system: G401, BT-12, BT-16, DAOY and D283 cell lines; assay: as above; assay type: cell-based, human
Procedure: as §1

MON rhabdoid cells = assay: as above; assay type: cell-based, human; settings: 48 hours
Procedure: as §1

[6] = test system: MON, G401, BT-12, and BT-16 cells; assay: MTT cell proliferation assay, rhabdoid tumor cell lines; assay type: cell-based, human; settings: all cell lines evaluated; 10-500 nM, 48 and 72 hr
Procedure: The expression of PLK4 (Hs00179514_m1) was verified by TaqMan GE assays (Thermo Fisher Scientific, USA) using the housekeeping gene GAPDH (Hs02758991_g1) as reference as previously described.[30] PLK4 inhibitor. […] Cell proliferation was evaluated by MTT assay and cell survival was evaluated by clonogenic assays using increasing concentrations of the drug in different time-points, as described below.
To evaluate cell proliferation, we used TACS MTT Cell Proliferation Assays (Trevigen, USA). We plated 2×10^3 cells on each well of a 96-well plate and the absorbance was measured after 48 and 72 hr at concentrations of 10, 50, 100, 200, and 500 nM. Each experiment was performed in triplicates.

[7] = Brain to plasma ratio (B:P); assay type: in vivo; settings: male, CD-1, mouse, brain and plasma, po, 7.5 mg/kg, fasted male CD-1 mice, 4 hours post-dose, average
Procedure: Raw brain-to-plasma ratios (B:P) were determined by dividing the brain concentration in ng/g by the plasma concentration in ng/g (with plasma, density assumed to be of 1 g/mL). The average B:P ratio was determined to be approximately 0.08±0.3 (FIG. 12). No further CFI-400945 pharmacokinetic studies were done as part of this study.
Male CD-1 mice weighing between 20 and 40 grams were fitted with jugular vein cannulas as appropriate and fasted overnight until 4 hours post-dose. Double route of administration (oral and IV) were tested, with a single dose concentration of 7.5 mg/kg. Plasma and brain were sampled at 6 time-points, starting at 30 minutes (n=3 animals/time-point). Brain was extracted at the same plasma sampling time-point from each animal. Both plasma and brain samples were deproteinated. Brain samples were weighted, homogenized and CFI-400945 was extracted. […] The dosing solution was normalized in a matched matrix (mouse plasm) and analyzed in triplicate in the same analytical batch as the incurred samples (Absorption Systems—Exton, Pa.).

[8] = test system: MON, G401, BT-12 and BT-16 cells; assay: Apoptosis by flow cytometry (Annexin V / PI); assay type: cell-based, human; settings: 100 nM, 48 hours vs 0.1% DMSO
Procedure: Cells were treated with various concentrations of […] and 0.1% DMSO (control) for evaluation of the impact of treatment on induction of apoptosis. Live cells were stained with Annexin V as an indicator of early apoptosis and Propidium Iodide (PI—Thermo Fisher Scientific, USA) for detection of late apoptosis and necrosis, according to manufacturer's instructions (Thermo Fisher Scientific, USA). Flow cytometric analysis was performed on a BD Fortessa instrument (BD Biosciences, USA) within an hour of staining. Data was analyzed using Modfit LT from Verity Software House. All experiments were performed in triplicates.

## COc1ccc2c(c1)[C@]1(C[C@H]1c1ccc3c(/C=C/c4ccc(CN5C[C@@H](C)O[C@@H](C)C5)cc4)n[nH]c3c1)C(=O)N2 [CFI-400945]
[1]; p=0.0146
  growth of intracranial AT/RT tumors (bioluminescence): significantly reduced the growth
[1]; p=0.0477, log-rank
  survival: extended the survival
MON cells [2]
  invasion and migration: significant reduction
RT and MB cell lines
  ability to generate colonies after drug removal: lost their ability to generate colonies
MON cells [3]
  nuclear area (FC): 2.79
  nuclear volume (FC): 4.69
[4]
  paradoxical effect on centriole number: not observed
[5]; 100 nM
  centriole number: increase in centriole's number
[5]; 500 nM
  centriole number: significant decrease
MON rhabdoid cells; 100 nM
  centriole number: slight increase in centrioles' number
MON rhabdoid cells; 500 nM
  centriole number: significant depletion of centrioles
[6]
  cell proliferation (MTT): significant reduction of cell proliferation
[7]
  Kp at 4 h: ~0.08
[8]
  cells undergoing cell death (apoptosis): significantly higher percentage of cells undergoing cell death
